Patent US8193164B2, “Organic compounds” (Novartis AG, priority 2006, dated 2012)

Biological target: adenosine A2A receptor (Homo sapiens, UniProt P29274)
Assay: adenosine A2A receptor agonist assay (method of Murphree et al, Molecular Pharmacology 61, 455-462 (2002))
Format: binding
Settings: method described by L. J. Murphree et al, Mol. Pharmacol. 61, 455-462 (2002)
Description: Compounds of formulae (I) and (II) and their pharmaceutically acceptable salts are useful as pharmaceuticals. In particular, they activate the adenosine A2A receptor, i.e. they act as A2A receptor agonists.

adenosine A2A receptor, sequence (P29274 whole entry): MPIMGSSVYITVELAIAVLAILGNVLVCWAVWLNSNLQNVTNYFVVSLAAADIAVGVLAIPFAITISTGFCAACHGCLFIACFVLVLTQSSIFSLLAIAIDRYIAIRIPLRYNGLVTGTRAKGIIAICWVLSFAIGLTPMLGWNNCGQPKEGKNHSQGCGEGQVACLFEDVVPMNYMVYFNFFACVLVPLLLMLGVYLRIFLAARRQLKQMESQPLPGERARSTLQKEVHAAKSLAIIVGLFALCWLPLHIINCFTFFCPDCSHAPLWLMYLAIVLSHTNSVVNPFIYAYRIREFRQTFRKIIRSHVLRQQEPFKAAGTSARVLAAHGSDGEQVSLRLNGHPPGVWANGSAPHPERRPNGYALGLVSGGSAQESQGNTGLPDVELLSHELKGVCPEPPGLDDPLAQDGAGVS

Compound	Ki
CCC(=O)N[C@H]1C[C@@H](n2cnc3c(NC(CO)Cc4ccccc4)nc(N4CC[C@@H](NC(=O)N[C@H]5CCN(c6nc(NC(CO)Cc7ccccc7)c7ncn([C@@H]8C[C@H](NC(=O)CC)[C@@H](O)[C@H]8O)c7n6)C5)C4)nc32)[C@H](O)[C@@H]1O (stereo in doubt) [Example 7]	10 nM
CCC(=O)N[C@H]1C[C@@H](n2cnc3c(NCC(c4ccccc4)c4ccccc4)nc(N4CC[C@@H](NC(=O)NC5CCC(NC(=O)N[C@H]6CCN(c7nc(NCC(c8ccccc8)c8ccccc8)c8ncn([C@@H]9C[C@H](NC(=O)CC)[C@@H](O)[C@H]9O)c8n7)C6)CC5)C4)nc32)[C@H](O)[C@@H]1O (stereo in doubt) [Example 15]	70 nM
CCC(=O)N[C@H]1C[C@@H](n2cnc3c(NCC(c4ccccc4)c4ccccc4)nc(N4CC[C@@H](NC(=O)N[C@@H]5CCN(c6nc(NCC(c7ccccc7)c7ccccc7)c7ncn([C@@H]8C[C@H](NC(=O)CC)[C@@H](O)[C@H]8O)c7n6)C5)C4)nc32)[C@H](O)[C@@H]1O [Example 1]	10 nM
CCC(=O)N[C@H]1C[C@@H](n2cnc3c(NCC(c4ccccc4)c4ccccc4)nc(N4CC[C@@H](NC(=O)NS(=O)(=O)N[C@@H]5CCN(c6nc(NCC(c7ccccc7)c7ccccc7)c7ncn([C@@H]8C[C@H](NC(=O)CC)[C@@H](O)[C@H]8O)c7n6)C5)C4)nc32)[C@H](O)[C@@H]1O [Example 19]	60 nM
